One assay has as its target T1, cloned human dopamine D3 receptors (Homo sapiens, UniProt P35462).
T1 construct: expressed in transfected cells; membrane homogenate
The experiment in a line: [N-Methyl-3H]Spiroperidol binding to cloned human dopamine D3 receptors (Protocol 1). The conditions noted are these: D3 Ki (nM), the 25th table. A digest of the protocol: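 Radioligand displacement with [N-methyl-3H]spiroperidol used a physiological-salt Tris buffer (0.05 M, pH 7.7; NaCl 120 mM, KCl 5 mM, CaCl2 2 mM, MgCl2 1 mM) and membranes of a high-expressing stable CHO clone carrying human D3. Total ligand concentration came from measured added CPM; 0.1% ascorbic acid was optional for oxidizable compounds.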
T1 sequence (P35462 whole entry): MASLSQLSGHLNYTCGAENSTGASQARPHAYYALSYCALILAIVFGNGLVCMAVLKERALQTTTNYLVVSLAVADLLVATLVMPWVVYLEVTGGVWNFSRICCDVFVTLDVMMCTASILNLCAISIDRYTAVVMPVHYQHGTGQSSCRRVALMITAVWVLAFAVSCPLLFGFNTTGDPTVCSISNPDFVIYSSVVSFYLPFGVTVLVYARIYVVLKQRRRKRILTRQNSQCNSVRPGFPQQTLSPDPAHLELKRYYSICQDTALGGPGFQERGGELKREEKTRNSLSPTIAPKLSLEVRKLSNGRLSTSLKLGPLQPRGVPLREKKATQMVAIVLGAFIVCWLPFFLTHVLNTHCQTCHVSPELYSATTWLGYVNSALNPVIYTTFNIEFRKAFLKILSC
For the compound `O=C(NCC1CC1CN1CCC(c2noc3ccsc23)CC1)Oc1ccccc1` (centres unmarked) [compound 831699], the Ki was 3.04 nM.

Still in this assay, the particulars now being: Table 2; read-out: D3K1.
For the compound `O=C(NCCCCN1CCCN(c2csc3cc(F)ccc23)CC1)c1cc2c(Cl)cc(Cl)cc2o1` [compound 827124], the Ki is 16.6 nM. Still for that read-out and setting: in the case of `COc1cc(OC)cc(C(=O)NCCCN2CCCN(c3csc4cc(F)ccc34)CC2)c1` [compound 827136] it was 268 nM. Same read-out and setting: for `Cc1ccc(C(=O)NCC(CO)CCN2CCN(c3csc4cc(C(F)(F)F)ccc34)CC2)cc1` (centres unmarked) [818921ES] the value was 331 nM; for `COc1cccc2cc(C(=O)NCCCCN3CCCN(c4csc5cc(F)ccc45)CC3)oc12` [compound 827121], 21.6 nM. As for `O=C(NCCCCN1CCN(c2c(-c3ccccc3)sc3cc(F)ccc23)CC1)c1ccc(Br)cc1` [compound 815874], the Ki came out at 282 nM.

The same assay, now with this note: read-out: D3K1.
For `O=C(NC/C=C\CN1CCN(c2csc3cc(C(F)(F)F)ccc23)CC1)c1ccsc1` [compound 826332], the Ki came to 20 nM. Regarding `O=C(NCCCCN1CCN(c2c(Cl)sc3cc(F)ccc23)CC1)c1ccc(F)cc1F` [compound 815053], the Ki is 5.8 nM. The same measure, in the same setting: for `COc1ccc(C(=O)NCCCCN2CCN(c3csc4cc(C(F)(F)F)ccc34)CC2)cc1OC` [compound 815550] the value was 6.9 nM; for `O=C(NCCCCN1CCN(c2c(Cl)sc3cc(C(F)(F)F)ccc23)CC1)C1CCCC1` [compound 815579], 104 nM; for `O=C(NCCCCN1CCN(c2csc3cc(C(F)(F)F)ccc23)CC1)c1cccs1` [81708A], 4.5 nM. On the same count and under the same terms, in the case of `CC(C)C(=O)NCCCCN1CCN(c2csc3cc(C(F)(F)F)ccc23)CC1` [compound 811700] it was 42.1 nM; in that of `O=C(NCCCCN1CCN(c2c(Cl)sc3cc(F)ccc23)CC1)c1sc2ccccc2c1Cl` [compound 815057], 12.3 nM. On to `O=C(NCCCCCCN1CCN(c2csc3cc(C(F)(F)F)ccc23)CC1)c1cccc(Cl)c1` [compound 826747], for which the Ki is 0.12 nM.

Regarding `O=C(NCCCCN1CCN(c2c(Cl)sc3cc(C(F)(F)F)ccc23)CC1)c1c(F)cccc1F` [compound 815577], the Ki was 95 nM. For `O=C(NCCCCN1CCN(c2c(Cl)sc3cc(C(F)(F)F)ccc23)CC1)c1ccc(C(F)(F)F)cc1` [compound 815575], the Ki worked out at 50 nM. Turning to `O=C(NCCCCN1CCN(c2c(Cl)sc3cc(C(F)(F)F)ccc23)CC1)c1ccc(Br)cc1` [compound 815571], the Ki came out at 34.2 nM. Turning to `O=C(NC/C=C/CN1CCN(c2csc3cc(C(F)(F)F)ccc23)CC1)C1CCCC1` [compound 827712], the Ki amounted to 66 nM.

Still in this assay, the particulars now being: the 13th table, unit inferred; read-out: D3Ki.
For the compound `O=C(NCCCCN1CCCN(c2csc3cc(C(F)(F)F)ccc23)CC1)c1ccncc1` [S980645], the Ki was 44 nM. On the same count and under the same terms, for `Cn1cccc1C(=O)NCCCCN1CCCN(c2csc3cc(C(F)(F)F)ccc23)CC1` [S980655] the value was 40 nM; for `O=C(NCCCCN1CCCN(c2csc3cc(F)ccc23)CC1)c1ccc2c(c1)S(=O)(=O)c1ccccc1C2=O` [S982539], 0.8 nM. Consider `O=C(NCCCCCN1CCCN(c2csc3cc(F)ccc23)CC1)c1cccc(C(F)(F)F)c1` [S984491], for which the Ki is 54 nM.

Turning to `O=C(NCCCCN1CCCN(c2csc3cc(F)ccc23)CC1)c1ccc(-c2ccccc2F)cc1` [S981842], the Ki is 2.2 nM. Same read-out and setting: for `O=C(NCCCCN1CCCN(c2csc3cc(C(F)(F)F)ccc23)CC1)c1ccc(-c2ccccc2)cc1` [S980641] the value was 29 nM; for `O=C(NCCCCCN1CCC(c2noc3ccsc23)CC1)c1ccc(-c2ccccc2)cc1` [compound 816208], 84.9 nM. In the case of `O=C(NCCCCCN1CCCN(c2csc3cc(F)ccc23)CC1)c1n[nH]c2ccccc12` [S984511], the Ki stood at 25.4 nM.

In the case of `COc1ccccc1C(=O)NCCCCN1CCCN(c2csc3cc(C(F)(F)F)ccc23)CC1` [S980634], the Ki is 14 nM. As to `CS(=O)(=O)c1ccc(CC(=O)NCCCCN2CCCN(c3csc4cc(F)ccc34)CC2)cc1` [S982511], the Ki amounted to 12 nM. On to `O=C(Cc1cc2ccccc2s1)NCCCCCN1CCC(c2noc3ccsc23)CC1` [compound 816206], for which the Ki was 505 nM. The same measure, in the same setting: for `O=C(NCCCCN1CCCN(c2csc3cc(C(F)(F)F)ccc23)CC1)c1cccc(Cl)c1` [S980628] the value was 110 nM. Same read-out and setting: for `O=C(Cc1ccc(C(F)(F)F)cc1)NCCCCN1CCCN(c2csc3cc(F)ccc23)CC1` [S982508] the value was 40.9 nM. With `O=C(NCCCCN1CCCN(c2csc3cc(F)ccc23)CC1)c1ccc2cc[nH]c2c1` [S977825], the Ki came to 0.882 nM.

As to `Cc1ccc(Sc2cc(C(=O)NCCCCN3CCCN(c4csc5cc(C(F)(F)F)ccc45)CC3)ccn2)cc1` [S980659], the Ki amounted to 110 nM.

Still in this assay, the particulars now being: the 14th table; read-out: D3 Ki.
Regarding `O=C(NCCCCCCN1CCN(c2csc3cc(C(F)(F)F)ccc23)CC1)c1cccc(Cl)c1` [compound 826747], the Ki was 0.12 nM.

Staying with this assay, now noted: the 15th table; read-out: D3 Ki.
`O=C(NCCCCN1C2CCC1CC(c1noc3cc(F)ccc13)C2)c1cc2ccccc2s1` (centres unmarked) [compound 816334]: the Ki amounted to 64.6 nM.

Regarding `Cc1ccc(C(=O)NCCCCN2C3CCC2CC(c2noc4cc(F)ccc24)C3)cc1` (centres unmarked) [compound 816344], the Ki was determined as 378 nM.

Turning to `Cc1ccccc1C(=O)NCCCCN1C2CCC1CC(c1noc3ccccc13)C2` (centres unmarked) [compound 816531], the Ki is 299 nM. The same measure, in the same setting: in the case of `CCCc1ccc(C(=O)NCCCCN2C3CCC2CC(c2noc4cc(F)ccc24)C3)cc1` (centres unmarked) [compound 816341] it was 50.9 nM.

The assay is the same for the next values; noted with them: the 16th table; read-out: D3 Ki.
Turning to `O=C(NCCCCN1CCCN(c2csc3cc(F)ccc23)CC1)c1cc2c(Cl)cc(Cl)cc2o1` [compound 827124], the Ki came to 16.6 nM.

As for `COc1cc(OC)cc(C(=O)NCCCN2CCCN(c3csc4cc(F)ccc34)CC2)c1` [compound 827136], the Ki was found to be 268 nM. Same read-out and setting: for `COc1cccc2cc(C(=O)NCCCCN3CCCN(c4csc5cc(F)ccc45)CC3)oc12` [compound 827121] the value was 21.6 nM.

Staying with this assay, now noted: the 17th table; read-out: D3 Ki.
`COc1cc(OC)cc(C(=O)N(Cc2ccccc2)CC2CC2CN2CCCN(c3csc4cc(F)ccc34)CC2)c1` (racemic) [compound 830396]: the Ki was 16.5 nM.

Still in this assay, the particulars now being: the 18th table; read-out: D3 Ki.
In the case of `COc1ccc(C(=O)NCc2sccc2CN2CCN(c3csc4cc(F)ccc34)CC2)cc1OC` [compound 826305], the Ki was found to be 30 nM. On the same count and under the same terms, for `O=C(NCc1sccc1CN1CCN(c2csc3cc(F)ccc23)CC1)c1cc(-c2ccco2)nc2ccccc12` [compound 826319] the value was 273 nM.

Still in this assay, the particulars now being: the 19th table; read-out: D3 Ki.
On to `COc1ccc(C(=O)Nc2ccc(CN3CCN(c4csc5cc(F)ccc45)CC3)cc2)cc1OC` [compound 822208], for which the Ki worked out at 183 nM.

The assay is the same for the next values; noted with them: the 21st table; read-out: D3 Ki.
`C[C@@H]1CN(c2csc3cc(C(F)(F)F)ccc23)C[C@H](C)N1CCCCNC(=O)c1ccc(C(F)(F)F)cc1` [compound 826936]: the Ki was found to be 96.1 nM.

In the case of `Cc1ccccc1C(=O)NCCCCN1[C@H](C)CN(c2csc3cc(F)ccc23)C[C@@H]1C` [compound 826941], the Ki amounted to 36.3 nM. Regarding `C[C@@H]1CN(c2csc3cc(F)ccc23)C[C@H](C)N1CCCCNC(=O)c1ccc(F)cc1` [compound 826939], the Ki came to 19 nM.

The same assay, now with this note: the 22nd table; read-out: D3 Ki.
With `N#Cc1ccc(C(=O)NCCCCN2CCN(c3noc4ccsc34)CC2)cc1` [compound 829686], the Ki was 42.1 nM. The same measure, in the same setting: in the case of `O=C(NCCCCN1CCN(c2noc3ccsc23)CC1)c1ccc(C(F)(F)F)cc1` [compound 829677] it was 96.6 nM.

Still in this assay, the particulars now being: the 23rd table; read-out: D3 Ki.
As for `FC(F)(F)c1ccc2c(N3CCN(C[C@@H]4C[C@H]4CNC4CCN(CC5CC5)CC4)CC3)csc2c1` [compound 832387], the Ki is 36.5 nM.

The assay is the same for the next values; noted with them: the 24th table; read-out: D3 Ki.
On to `O=S(=O)(NCC1CC1CN1CCC(c2noc3ccsc23)CC1)c1ccc(OC(F)(F)F)cc1` (centres unmarked) [compound 831513], for which the Ki worked out at 65.5 nM. Same read-out and setting: in the case of `O=S(=O)(NCC1CC1CN1CCC(c2noc3ccsc23)CC1)c1ccc(F)cc1` (centres unmarked) [compound 831363] it was 36.3 nM.

The record behind these values is patent publication US7550469B2, “Heterocyclic amide derivatives and their use as dopamine D3 receptor ligands” (Aventis Pharmaceuticals Inc., priority 2001, dated 2009).
